{
  "source": "patent US11168095B2",
  "about": "“ASK1 inhibiting agents” (BIOGEN MA INC., priority 2017, dated 2021)",
  "key": {"[1]": {"conditions": "14-membered ring"}, "[2]": {"conditions": "amide bond, 14-membered ring, T3P/Et3N"}, "ASK1/MAP3K5": {"target": "ASK1/MAP3K5 (Homo sapiens (Human), UniProt Q99683)", "sequence (Q99683 whole entry)": "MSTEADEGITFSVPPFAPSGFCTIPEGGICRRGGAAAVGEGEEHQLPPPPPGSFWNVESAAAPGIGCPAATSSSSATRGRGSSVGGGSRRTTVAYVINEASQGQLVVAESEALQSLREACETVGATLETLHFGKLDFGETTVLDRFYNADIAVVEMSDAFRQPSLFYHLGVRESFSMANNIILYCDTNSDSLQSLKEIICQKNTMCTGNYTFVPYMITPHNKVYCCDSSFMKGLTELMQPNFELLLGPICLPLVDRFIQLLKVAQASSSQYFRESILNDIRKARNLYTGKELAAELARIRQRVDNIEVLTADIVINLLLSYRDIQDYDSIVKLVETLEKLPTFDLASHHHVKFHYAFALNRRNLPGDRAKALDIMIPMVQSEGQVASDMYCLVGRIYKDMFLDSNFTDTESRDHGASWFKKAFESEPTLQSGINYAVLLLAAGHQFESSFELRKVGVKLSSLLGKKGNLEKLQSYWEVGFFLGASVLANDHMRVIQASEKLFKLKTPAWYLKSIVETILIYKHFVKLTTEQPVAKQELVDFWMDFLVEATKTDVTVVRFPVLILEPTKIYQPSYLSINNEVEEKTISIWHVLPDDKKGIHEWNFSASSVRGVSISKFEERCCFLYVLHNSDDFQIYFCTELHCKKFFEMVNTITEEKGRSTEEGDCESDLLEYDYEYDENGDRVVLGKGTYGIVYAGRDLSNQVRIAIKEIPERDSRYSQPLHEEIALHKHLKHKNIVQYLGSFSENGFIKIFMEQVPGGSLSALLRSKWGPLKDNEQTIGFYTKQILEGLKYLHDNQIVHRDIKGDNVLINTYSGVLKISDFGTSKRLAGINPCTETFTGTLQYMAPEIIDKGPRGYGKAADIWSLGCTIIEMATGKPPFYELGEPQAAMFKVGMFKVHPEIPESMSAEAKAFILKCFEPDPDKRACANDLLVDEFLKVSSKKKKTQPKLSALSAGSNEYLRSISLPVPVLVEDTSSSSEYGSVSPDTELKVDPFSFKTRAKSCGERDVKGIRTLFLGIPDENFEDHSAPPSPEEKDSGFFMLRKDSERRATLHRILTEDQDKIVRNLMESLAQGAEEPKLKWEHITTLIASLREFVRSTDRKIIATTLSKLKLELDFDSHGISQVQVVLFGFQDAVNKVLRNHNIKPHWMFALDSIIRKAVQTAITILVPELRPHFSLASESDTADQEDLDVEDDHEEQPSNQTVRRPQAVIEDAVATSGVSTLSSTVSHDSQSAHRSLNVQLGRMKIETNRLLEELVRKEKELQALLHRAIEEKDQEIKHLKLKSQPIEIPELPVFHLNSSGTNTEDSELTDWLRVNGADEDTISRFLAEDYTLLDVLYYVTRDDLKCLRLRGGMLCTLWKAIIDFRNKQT", "assay": "ASK1/MAP3K5 assay by Reaction Biology Corp.", "type": "biochemical", "conditions": "20 μM myelin basic protein (MBP), 10 μM ATP", "description": "ASK1/MAP3K5 was used as the protein kinase and 20 μM of myelin basic protein (MBP) and 10 μM ATP were used as the substrate."}, "GST-hASK1": {"target": "GST-hASK1 (Homo sapiens (Human), UniProt Q99683)", "sequence (Q99683 649-946)": "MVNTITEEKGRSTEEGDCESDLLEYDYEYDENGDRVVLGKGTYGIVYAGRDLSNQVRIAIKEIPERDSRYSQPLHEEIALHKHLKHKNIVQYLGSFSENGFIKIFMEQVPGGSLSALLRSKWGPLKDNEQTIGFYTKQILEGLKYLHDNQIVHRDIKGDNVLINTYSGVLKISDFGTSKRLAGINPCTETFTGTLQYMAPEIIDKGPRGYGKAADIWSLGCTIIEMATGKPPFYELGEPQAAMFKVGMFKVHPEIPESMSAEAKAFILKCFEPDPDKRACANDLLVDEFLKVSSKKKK", "assay": "ASK1 TR-FRET assay", "type": "biochemical", "conditions": "5 nM GST-hASK1, 100 μM ATP, 2 μM STK Substrate 3", "description": "The protein kinase activity of 5 nM GST-hASK1(Life Technologies PV4011) was assayed with 100 μM ATP and 2 μM of HTRF biotinylated STK Substrate 3 (CisBio Kit 62ST3PEJ), at ambient temperature in 25 mM Hepes, pH 7.5, 50 mM NaCl, 10 mM MgCl2, 0.02% Brij-35, 1 mM DTT, and 1% DMSO.\nAfter a 10 minute pre-incubation, ASK1 protein kinase activity was initiated by addition of 10 μL of 300 μM ATP."}, "[3]": {"target": "ASK1 T838 auto phosphorylation in HEK-293T cells (Homo sapiens (Human), UniProt Q99683)", "sequence (Q99683 whole entry)": "as the sequence (Q99683 whole entry) above", "assay": "ASK1 (AUTO PHOS T838) assay, MSD format", "type": "cell-based", "conditions": "HEK 293T cells transfected with ASK1-V5 full length plasmid, compounds 1 hr at 37° C.; read-out: IC50"}},
  "note": "Several values for one entry are separate records, joined by “and”; a condition that tells them apart may be missing. Equal values may be shown once. Read-outs that look alike come from different tables or passages of the source.",
  "data": [
    {"smiles": "O=C1Nc2cccc(n2)-c2nncn2CCCCOc2cc(F)c(Cl)cc21", "values": [
      {"measurement": "ring closure, isolated yield", "setting": "from Nc1cccc(-c2nncn2CCCCOc2cc(F)c(Br)cc2C(=O)O)n1, amide bond, 14-membered ring, T3P/Et3N, Et3N/EtOAc, 117.0 mM, 80.0 °C, 17.0 h", "result": 35, "unit": "%"}
    ]},
    {"smiles": "O=C1Nc2cccc(n2)-c2nncn2CC=CCOc2cc(C(F)(F)F)ccc21", "values": [
      {"measurement": "ring closure, isolated yield", "setting": "from C=CCOc1cc(C(F)(F)F)ccc1C(=O)Nc1cccc(-c2nncn2CC=C)n1, rcm bond, 14-membered ring, Hoveyda-Grubbs II (10 mol%), DCE, 2.64 mM, 80.0 °C, 3.0 h", "result": 41, "unit": "%"}
    ]},
    {"smiles": "CC(C)(C)OC(=O)N1C(=O)c2ccc(C(F)(F)F)cc2OCC=CCn2cnnc2-c2cccc1n2", "values": [
      {"measurement": "ring closure, yield after HPLC", "setting": "[1]; from C=CCOc1cc(C(F)(F)F)ccc1C(=O)N(C(=O)OC(C)(C)C)c1cccc(-c2nncn2CC=C)n1, rcm bond, Hoveyda-Grubbs I (20 mol%), toluene, 1.9 mM, 110.0 °C, 17.0 h", "result": "9% and 13%"}
    ]},
    {"smiles": "CC1CCCOc2cc(Cl)ccc2C(=O)Nc2cccc(n2)-c2nncn21", "note": "(racemic)", "values": [
      {"measurement": "ring closure, crude yield", "setting": "[2]; from CC(CCCOc1cc(Br)ccc1C(=O)O)n1cnnc1-c1cccc(N)n1, EtOAc/Et3N, 50.0 °C, 12.0 h", "result": 37, "unit": "%"}
    ]},
    {"smiles": "CC(C)(C)OC(=O)N1C(=O)c2cc(Br)c(F)cc2OCCC=CCn2cnnc2-c2cccc1n2", "values": [
      {"measurement": "ring closure, isolated yield", "setting": "from C=CCCOc1cc(F)c(Br)cc1C(=O)N(C(=O)OC(C)(C)C)c1cccc(-c2nncn2CC=C)n1, rcm bond, 15-membered ring, Hoveyda-Grubbs I (20 mol%), toluene, 1.66 mM, 110.0 °C, 17.0 h", "result": 31, "unit": "%"}
    ]},
    {"smiles": "O=C1Nc2cccc(n2)-c2nncn2CCCCOc2cc(Cl)ccc21", "values": [
      {"measurement": "ring closure, isolated yield", "setting": "from Nc1cccc(-c2nncn2CCCCOc2cc(Br)ccc2C(=O)O)n1, amide bond, 14-membered ring, T3P/Et3N, Et3N/EtOAc, 116.0 mM, 50.0 °C, 3.0 h", "result": 27, "unit": "%"}
    ]},
    {"smiles": "O=C1Nc2cccc(n2)-c2nncn2CCCCOc2cc(Cl)c(F)cc21", "values": [
      {"measurement": "ring closure, isolated yield", "setting": "from Nc1cccc(-c2nncn2CCCCOc2cc(Br)c(F)cc2C(=O)O)n1, amide bond, 14-membered ring, T3P/Et3N, Et3N/EtOAc, 110.0 °C, 0.05 h, 2 steps", "result": 55, "unit": "%"}
    ]},
    {"smiles": "O=C1Nc2cccc(n2)-c2nncn2CCCCOc2ccc(Cl)cc21", "values": [
      {"measurement": "ring closure, isolated yield", "setting": "from Nc1cccc(-c2nncn2CCCCOc2ccc(Br)cc2C(=O)O)n1, amide bond, 14-membered ring, T3P/Et3N, Et3N/EtOAc, 76.0 mM, 80.0 °C, 4.0 h", "result": 41, "unit": "%"}
    ]},
    {"smiles": "O=C1Nc2cccc(n2)-c2nncn2CCCCOc2ccc(-n3cccn3)cc21", "note": "[Example 44, 5^5-(1H-Pyrazol-1-yl)-1^4H-6-oxa-3-aza-2(2,6)-pyridina-1(3,4)-triazola-5(1,2)-benzenacyclodecaphan-4-one]", "values": [
      {"measurement": "IC50", "setting": "ASK1/MAP3K5", "result": "< 100", "unit": "nM"},
      {"measurement": "IC50", "setting": "GST-hASK1", "result": "< 100", "unit": "nM"},
      {"measurement": "IC50", "setting": "[3]", "result": "< 1000", "unit": "nM"}
    ]},
    {"smiles": "O=C1Nc2cccc(n2)-c2nncn2CCCCOc2cc(C(F)(F)F)c(Cl)cc21", "values": [
      {"measurement": "ring closure, yield after HPLC", "setting": "[1]; from Nc1cccc(-c2nncn2CCCCOc2cc(C(F)(F)F)c(Br)cc2C(=O)O)n1, amide bond, T3P/Et3N, Et3N/EtOAc, 18.0 mM, 50.0 °C, 4.0 h", "result": 40, "unit": "%"}
    ]},
    {"smiles": "O=C1Nc2cccc(n2)-c2nncn2CCCCOc2ccc(N3CCC(F)(F)CC3)cc21", "note": "[Example 12, 5^5-(4,4-Difluoropiperidin-1-yl)-1^4H-6-oxa-3-aza-2(2,6)-pyridina-1(3,4)-triazola-5(1,2)-benzenacyclodecaphan-4-one]", "values": [
      {"measurement": "IC50", "setting": "ASK1/MAP3K5", "result": "< 100", "unit": "nM"},
      {"measurement": "IC50", "setting": "GST-hASK1", "result": "< 100", "unit": "nM"},
      {"measurement": "IC50", "setting": "[3]", "result": "< 1000", "unit": "nM"}
    ]},
    {"smiles": "O=C1Nc2cccc(n2)-c2nncn2CCCCOc2ccc(N3C4CCC3COC4)cc21", "note": "[Example 5, 5^5-(3-Oxa-8-azabicyclo[3.2.1]octan-8-yl)-1^4H-6-oxa-3-aza-2(2,6)-pyridina-1(3,4)-triazola-5(1,2)-benzenacyclodecaphan-4-one]", "values": [
      {"measurement": "IC50", "setting": "ASK1/MAP3K5", "result": "< 100", "unit": "nM"},
      {"measurement": "IC50", "setting": "GST-hASK1", "result": "< 100", "unit": "nM"},
      {"measurement": "IC50", "setting": "[3]", "result": "< 1000", "unit": "nM"}
    ]},
    {"smiles": "CC1CCOc2cc(F)c(Cl)cc2C(=O)Nc2cccc(n2)-c2nncn2C1", "note": "(racemic)", "values": [
      {"measurement": "ring closure, isolated yield", "setting": "from CC(CCOc1cc(F)c(Br)cc1C(=O)O)Cn1cnnc1-c1cccc(N)n1, amide bond, 14-membered ring, T3P/Et3N, Et3N/EtOAc, 43.0 mM, 70.0 °C, 2.0 h", "result": 23, "unit": "%"}
    ]},
    {"smiles": "CC1CCCn2cnnc2-c2cccc(n2)NC(=O)c2cc(Cl)ccc2O1", "note": "(racemic)", "values": [
      {"measurement": "ring closure, crude yield", "setting": "[2]; from CC(CCCn1cnnc1-c1cccc(N)n1)Oc1ccc(Br)cc1C(=O)O, Et3N/EtOAc, 137.0 mM, 70.0 °C, 3.0 h", "result": 57, "unit": "%"}
    ]},
    {"smiles": "O=C1Nc2cccc(n2)-c2nncn2CCCCOc2ccc(N3CCC(F)(F)C3)cc21", "note": "[Example 10, 5^5-(3,3-Difluoropyrrolidin-1-yl)-1^4H-6-oxa-3-aza-2(2,6)-pyridina-1(3,4)-triazola-5(1,2)-benzenacyclodecaphan-4-one]", "values": [
      {"measurement": "IC50", "setting": "ASK1/MAP3K5", "result": "< 100", "unit": "nM"},
      {"measurement": "IC50", "setting": "GST-hASK1", "result": "< 100", "unit": "nM"},
      {"measurement": "IC50", "setting": "[3]", "result": "< 1000", "unit": "nM"}
    ]}
  ]
}
